According to PMC6008492, “Structure activity relationship studies on rhodanines and derived enethiol inhibitors of metallo-β-lactamases” (Bioorganic & Medicinal Chemistry, 2018):

Tests used:
[1] = biological target: T1, NDM-1 (Klebsiella pneumoniae, UniProt C7C422); assay: NDM-1 inhibition, fluorogenic cephalosporin (FC5) hydrolysis; format: biochemical; details: enethiols 6 assayed as sodium salts; 10 min incubation; read-out: IC50 NDM-1
T1 construct: made in house
Protocol: (§1) Inhibition analyses against bacterial MBLs and SBLs were performed as described previously.[22], [24], [26] Residual enzyme activities were determined for a range of inhibitor concentrations. Non-linear regression fitting of IC50 curves was carried out using a three-parameter dose–response curve in GraphPad Prism. Errors in IC50 values are expressed as: σ(logIC50)/logIC50×IC50
(§2) We first screened the inhibitors against a representative set of presently clinically important and other MBLs[22], comprising both Class B1 enzymes (NDM-1, New Delhi MBL-1; VIM-2, Verona integron–encoded MBL-2; BcII, Bacillus cereus II MBL; SPM-1, São Paulo MBL-1; IMP-1, imipenemase MBL-1) and the Class B2 MBL CphA (carbapenem hydrolysing MBL from Aeromonas hydrophila).[22] The latter MBL (CphA) only utilises one active site Zn(II) ion in catalysis, whilst the others normally use two Zn(II) ions.
Figure S4: IC50 curves for NDM-1 inhibition time courses. Residual activities were calculated from the
(§3) initial rate of FC5 hydrolysis after incubation of the enzyme with the inhibitor for 10 minutes. […]

[2] = 1H NMR time course stability (hydrolysis) test; format: physicochemical; details: 200 µM, pH 7.5, presence or absence of NDM-1, timescale of the inhibition studies
Protocol: NMR experiments were carried out using a Bruker Avance III 700 MHz machine equipped with a TCI inverse cryoprobe or a Bruker Avance III HD 600 MHz spectrometer equipped with a Prodigy cryoprobe at 298 K. Data were analysed using Bruker Topspin 3.5. Processing of spectra was done with a Lorentzian line broadening of 0.3 Hz. Chemical shifts (δ) are given as parts per million (ppm) relative to residual HDO (δH 4.70 ppm for ^1H NMR).
For rhodanine stability studies solutions were buffered in either freshly prepared NH4HCO3 (50 mM, pH 7.50) or Tris-d11 (50 mM, pH 7.50) both with NaCl (100 mM) in D2O. ML302 stock solution (50 mM in DMSO‑d6) was added to a sample to give a final concentration of 200 µM. When specified, NDM-1 was added to give a final concentration of 1 µM. The reaction was followed at 1 h intervals over 18 h (Figs. S7 and S8).
Figure S7. […] A, 10 (200 µM) in NH4HCO3 (50 mM, pH
7.5 in D2O) in the absence of NDM-1, 1H NMR time course over 18 hours; B, 10 (200 µM) in NH4HCO3 (50 mM, pH 7.5 in D2O) in the presence of NDM-1 (1 µM), 1H NMR time course over 18 hours; C, 10 (200 µM) in Tris-d11 (50 mM, pH 7.5 in D2O) in the absence of NDM-1, 1H NMR time course over 18 hours; D, 10 (200 µM) in Tris-d11 (50 mM, pH 7.5 in D2O) and in the presence of NDM-1 (1 µM), 1H NMR time course over 18 hours. […]

[3] = biological target: SPM-1 (Pseudomonas aeruginosa, UniProt Q8G9Q0); assay: SPM-1 inhibition, fluorogenic cephalosporin (FC5) hydrolysis; format: biochemical; details: enethiols 6 assayed as sodium salts; 10 min incubation; read-out: IC50 SPM-1 (converted)
Sequence of SPM-1 (Q8G9Q0 entry or part of it): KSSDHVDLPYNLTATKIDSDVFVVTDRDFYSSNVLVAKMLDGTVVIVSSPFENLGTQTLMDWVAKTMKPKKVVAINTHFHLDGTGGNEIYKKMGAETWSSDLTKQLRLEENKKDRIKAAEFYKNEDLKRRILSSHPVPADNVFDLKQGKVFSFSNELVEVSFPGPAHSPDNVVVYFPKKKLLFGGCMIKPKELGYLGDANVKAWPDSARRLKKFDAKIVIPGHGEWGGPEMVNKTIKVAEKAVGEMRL
Protocol: as §1, §2
Figure S5: IC50 curves for SPM-1 inhibition time courses. Residual activities were calculated from the
as §3

[4] = biological target: T2, VIM-2 (Escherichia coli, UniProt Q5U7L7); assay: biochemical; details: enethiols 6 assayed as sodium salts; 10 min incubation; read-out: IC50 VIM-2 (converted)
T2 construct: made in house
Protocol: as §1
as §2, with “ions. We also screened the inhibitors against a representative panel of SBLs from different classes (TEM-1, Temoneira β-lactamase-1, class A; CTX-M-15, cefotaxime hydrolysing β-lactamase from Munich 15, class A, extended spectrum β-lactamase (ESBL); AmpC E. coli, class C, and OXA-10, oxacillinase-10, class D).” for “ions.”
Figure S6: IC50 curves for VIM-2 inhibition time courses. Residual activities were calculated from the
as §3

[5] = biological target: T3, BcII (Bacillus cereus, UniProt P04190); assay: biochemical; details: enethiols 6 assayed as sodium salts; 10 min incubation; read-out: IC50 BcII (converted)
T3 construct: made in house
T3 sequence (P04190 31-257): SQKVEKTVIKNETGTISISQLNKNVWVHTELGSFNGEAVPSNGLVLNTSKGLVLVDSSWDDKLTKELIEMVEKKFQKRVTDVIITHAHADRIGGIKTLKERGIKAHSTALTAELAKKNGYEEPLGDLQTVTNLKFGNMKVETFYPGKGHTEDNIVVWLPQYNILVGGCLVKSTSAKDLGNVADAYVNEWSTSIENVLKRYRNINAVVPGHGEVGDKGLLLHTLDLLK
Protocol: as §1, §2
Figure S2: IC50 curves for BcII inhibition time courses. Residual activities were calculated from the initial
rate of FC5 hydrolysis after incubation of the enzyme with the inhibitor for 10 minutes. […]

T1 sequence (C7C422 29-270, looked up, species assumed): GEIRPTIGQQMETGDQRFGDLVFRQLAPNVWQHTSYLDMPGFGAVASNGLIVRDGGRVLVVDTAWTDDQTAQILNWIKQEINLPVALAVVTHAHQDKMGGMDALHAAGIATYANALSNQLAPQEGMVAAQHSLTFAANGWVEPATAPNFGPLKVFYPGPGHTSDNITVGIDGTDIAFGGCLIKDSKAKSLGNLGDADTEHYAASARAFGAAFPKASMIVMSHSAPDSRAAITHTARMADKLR

CN1CCN(NC(=O)CN2C(=O)S/C(=C\c3c(Cl)ccc(Cl)c3Cl)C2=O)CC1 [Compound 10]
IC50 [1]: > 50000 nM | hydrolysis by 1H NMR (700 MHz) [2]: did not observe hydrolysis | IC50 [3]: 500 ± 40 nM | IC50 [4]: 200 ± 20 nM | IC50 [5]: 600 ± 50 nM
